GH, Glucagon and Insulin data for two compounds are collected here from US3991041A, “(Phe3 -Ala)1 -somatostatin” (American Home Products Corporation, priority 1975, dated 1976).

What all share (format): in vivo, albino male rats
The subject of assay [1] is growth hormone. Nature of the assay: Nembutal/arginine rat test, blood radioimmunoassayed for growth hormone. Here is the method: (§1) Nembutal (50 mg/kg) was injected intraperitoneally into each rat. Fifteen minutes later a subcutaneous injection of the test compound, somatostatin (200 μg/kg) and physiological saline (control) was administered separately to each of the three groups of rats. Ten minutes later 0.5 milliliters of arginine (300 mg/ml, pH 7.2) was injected into the rats heart. The rats were decapitated five minutes later and their blood was collected in Trasylol -EDTA. Aliquot samples were radioimmunoassayed for growth hormone, glucagon and insulin. The cyclic heptadecapeptide of this invention, with Trp in the L-configuration and in the form of the C-terminal carboxylic acid, selected as representative of the group of compounds disclosed for test purposes, was employed in two additional distinct test procedures at about 5,000 μg/kg dose levels.

The subject of assay [2] is glucagon. Nature of the assay: Nembutal/arginine rat test, blood radioimmunoassayed for glucagon. The protocol:
as §1

The test system of assay [3] is insulin. Nature of the assay: Nembutal/arginine rat test, blood radioimmunoassayed for insulin. Here is the method:
as §1

Compound `C[C@H](N)C(=O)NCC(=O)N[C@H]1CSSC[C@@H](C(=O)O)NC(=O)[C@H](CO)NC(=O)[C@H]([C@@H](C)O)NC(=O)[C@H](Cc2ccccc2)NC(=O)[C@H]([C@@H](C)O)NC(=O)[C@H](CCCCN)NC(=O)[C@H](Cc2c[nH]c3ccccc23)NC(=O)[C@H](Cc2ccccc2)NC(=O)[C@H](Cc2ccccc2)NC(=O)[C@H](CC(N)=O)NC(=O)[C@H](CCCCN)NC1=O` [SRIF, somatostatin] came in with a GH in assay [1] (dose 200 μg/kg subcutaneous, arginine-stimulated rats, control 282±31) of 117 ± 6 ng/mL. Moreover, the Glucagon in assay [2] (dose 200 μg/kg subcutaneous, arginine-stimulated rats, control 17.1±4.8) is 2.0 ± 1.4 pg/mL. For the same compound, the Insulin in assay [3] (dose 200 μg/kg subcutaneous, arginine-stimulated rats, control 243±20) stood at 136±12 μU/ml.
Turning to `C[C@H](NC(=O)[C@H](Cc1ccccc1)NC(=O)[C@H](Cc1ccccc1)NC(=O)[C@@H](N)Cc1ccccc1)C(=O)NCC(=O)N[C@H]1CSSC[C@@H](C(=O)O)NC(=O)[C@H](CO)NC(=O)[C@H]([C@@H](C)O)NC(=O)[C@H](Cc2ccccc2)NC(=O)[C@H]([C@@H](C)O)NC(=O)[C@H](CCCCN)NC(=O)[C@H](Cc2c[nH]c3ccccc23)NC(=O)[C@H](Cc2ccccc2)NC(=O)[C@H](Cc2ccccc2)NC(=O)[C@H](CC(N)=O)NC(=O)[C@H](CCCCN)NC1=O` [Example 3, L-phenylalanyl-L-phenylalanyl-L-phenylalanyl-L-alanylglycyl-L-cysteinyl-L- lysyl-L-asparaginyl-L-phenylalanyl-L-phenylalanyl-L-tryptophyl-L-lysyl-L-threonyl-L-phenylalanyl-L-threonyl-L-seryl-L-cysteine, (6→17) triacetate], the GH in assay [1] (dose 1,000 μg/kg subcutaneous, Nembutal 50 mg/kg i.p., arginine intracardiac 10 min after dose, blood 5 min later, control 282±31) is 124 ± 11 ng/mL; in assay [1] (dose 4,660 μg/kg, third test, control 202±26) it was 97 ± 7 ng/mL; in assay [1] (dose 5,000 μg/kg, second test, control 126±25) it was 27 ± 2 ng/mL. For the same compound, the Glucagon was 0.6 ± 0.2 pg/mL in assay [2] (dose 1,000 μg/kg subcutaneous, arginine-stimulated rats, control 17.1±4.8); 1.1 ± 0.5 pg/mL in assay [2] (dose 4,660 μg/kg, third test, control 3.7±1.3, * Not Significant); 6.5 ± 2.3 pg/mL in assay [2] (dose 5,000 μg/kg, second test, control 14.0±3). Also, the Insulin in assay [3] (dose 1,000 μg/kg subcutaneous, arginine-stimulated rats, control 243±20, * Not Significant) was 204±18 μU/ml; in assay [3] (dose 4,660 μg/kg, third test, control 176±1, * Not Significant), 165±16 μU/ml; in assay [3] (dose 5,000 μg/kg, second test, control 283±37, * Not Significant), 202±37 μU/ml.
